# Results taken from US20040115176A1, “Fibrin-based tissue-engineered vasculature” (priority 2002, published 2004).
# How the values were obtained:
# Format in all cases: cell-based, ovine
# fibrin gel constructs [1] = assay: Isolated tissue bath, relaxation of norepinephrine constriction; conditions: for relaxation of norepinephrine constriction: SNAP 10^−5 M, norepinephrine 3×10^−6
# fibrin gel constructs [2] = assay: Isolated tissue bath, constriction of construct rings
# fibrin gel constructs [3] = assay: Total weight of fibrin gel vessel constructs; conditions: 10 and 20 μg/ml aprotinin, two week time point
# Procedure: Vessel constructs were left on 4.0 mm silastic tubing in which they were molded, and placed in a 50 ml conical with 30 ml of culture medium. The caps (fixed with 0.22 μm filter) were either attached to the pulsation device or left unattached. The constructs were incubated in a CO2 incubator at 37° C. and 5% CO2. Forty-eight hours after vessel molding, aprotinin (0-200 μg/ml) was added. Some of the vessel constructs were connected to a pneumatic pulsation system, representing a 5-10% radial distention at 60 beats/minute, and one of two pulsation time interval schemes (continuous or 1 hour per 12 hours). Aprotinin (Sigma), a competitive serine protease inhibitor which forms stable complexes with and blocks the active site of enzymes, was added to the fibrin mixture at 0, 10, 20, or 200 μg/ml of vessel medium. Aprotinin was reconstituted using culture medium, filter sterilized through a 0.22 μm syringe filter, and stored at 2.0 mg/ml/vial at 2-8° C. Tissue sections were weighed and some were placed in 10% buffered formalin for paraffin embedding, while others were placed in isolated tissue baths. The weights of the sections were added to obtain total construct weight. […]
# fibrin gel constructs [4] = assay: Cell density within vessel constructs (H&E histology)
# Procedure: Histological sections of the vessel constructs that were previously prepared with H&E Stain were used to count total number of cells per area. Random high powered fields were measured using Photo Spot software to calculate the actual surface area. The hematoxylin nuclear stain was used to identify the number of cells per high powered field. This was then used to calculate the number cells per surface area (cells/mm^2). Cell density within vessel constructs of the present invention was calculated using histology sections stained with hematoxylin and eosin. Total number of cells were counted per high powered field, divided by the area measured using Photospot Advanced software, and reported as number of cells/mm^2. […] However, at 10 μg/ml aprotinin and thereafter, both groups were decreased and equal. The altered pulsation group ( 1/12 pulsation) (2 wks, 608±123 cells/mm^2, n=5) was equal to both non-pulsed and pulsed at 20 μg/ml aprotinin (FIG. 17). Considering the change in cell density over time (1, 2, 3, 4 and 8 weeks), they were similar at weeks 1 and 2. […] At weeks 4 and 8, there was a significant difference between the two groups (Non-pulsed: 1 wk, 613±140, n=2; 2 wk, 591±52, n=6; 3 wk, 817±43, n=2; 4 wk, 865±17, n=4; 8 wk, 751±101, n=6; Pulsed: 1 wk, 566±33, n=2; 2 wk, 448±71, n=5; 3 wk, 480±213, n=3; 4 wk, 175±25, n=4; 8 wk, 168±54, n=3) (FIG. 18).
# fibrin gel constructs [5] = assay: Hydroxyproline assay for collagen content of constructs
# Procedure: Native tissue and vessel constructs were assayed for hydroxyproline using a modification of the methods of Reddy and Enwemeka (Clinical Biochemistry 29(3):225-9 (1996), which is hereby incorporated by reference in its entirety) to determine total collagen content. Tissues were first dabbed dry, weighed, transferred to eppendorf tubes, and then lyophilized. Samples were mixed with 2N sodium hydroxide in a total volume of 50 μl and hydrolyzed by autoclaving at 120° C. for 20 min. To the hydrolyzate was added 450 μl of chloramines-T solution containing 1.27 gm chloramines-T (Sigma) dissolved in 20 ml 50% n-propanol (Fisher) and brought to 100 ml with acetate citrate buffer containing 120 gm sodium acetate trihydrate (Fisher), 46 gm citric acid (Fisher), 12 ml acetic acid (Fisher), 34 gm sodium hydroxide bringing to 1 liter with distilled water and pH to 6.5. Mixing gently, the oxidation was allowed to proceed for 25 minutes at room temp. Samples were then gently mixed with 500 μl of Ehrlich's Reagent containing 15 gm p-dimethylaminobenzaldehyde (p-DMBA) (Sigma) dissolved in n-propanol/perchloric acid (2:1 v/v) (Fisher) and brought to 100 ml. The resulting 96-well plate of 200 μl samples was read using a spectrophotometer set to 550 nm to determine optical density, which was then correlated with collagen amount using a standard curve and a conversion factor of 8.0 μg collagen to 1 μg 4-hydroxyproline (Edwards and O'Brien, Clinica Chimica Acta 104(2):161-7 (1980), which is hereby incorporated by reference in its entirety).
# Hydroxyproline is an imino acid found specifically in type I collagen at 12.5% of the total by weight. This spectrophotometric assay was used to quantitate directly the collagen content of tissue homogenates. The values are represented as μg of collagen/mg of tissue, dry weight.
# fibrin gel constructs [6] = assay: PCNA staining, percentage of proliferating cells
# Procedure: Proliferating cell nuclear antigen stain (“PCNA”) was used to identify and quantitate the percentage of proliferating cells within the tissue-engineered vessel constructs of the present invention. PCNA is a 36 kD molecule highly conserved between species. PCNA functions as a co-factor for DNA polymerase delta in S phase and also during DNA synthesis associated with repair. The PCNA molecule has a half life greater than 20 hours and, therefore, may detect non-proliferating cells in Go phase. Tissue section were fixed in 10% buffered formalin, and paraffin embedded. Tissue sections were cut at 4 μm and placed on positive slides. Sections were then deparaffinised and rehydrated to distilled water. Endogenous peroxidase was blocked by placing sections in […] for 10 minutes and then washed in tap water. Antigen retrieval methods were then applied. Sections were either boiled in 0.01M citrate buffer, or placed in a microwave for 30 seconds on low power. Sections were then washed 1×5 minutes in […] (TBS). Sections were placed in diluted normal serum for 10 minutes, incubated with primary antibody, and washed in TBS 2×5 minutes. Sections were also incubated with biotinylated secondary antibody, and washed in TBS 2×5 minutes. Slides were then incubated in ABC reagent (streptavidin/peroxidase complex), and washed in TBS 2×5 minutes. Slides were incubated in DAB (peroxidase substrate), and washed thoroughly in running tap water. The slides were then counterstained with hematoxylin, dehydrated, and mounted. Proliferating cell nuclear antigen (PCNA) was used to identify cells that were in a proliferating state using histological staining methods. FIGS. 11A-D represent constructs that were stained at 1 week (FIGS. 11A and 11B) and 2 weeks (FIGS. 11C and 11D). The constructs in FIGS. 11A and 11C were under non-pulsed conditions. The constructs in FIGS. 11B and 11D were under pulsed conditions. The PCNA antibody was visualized with diaminobenzidine (DAB) and counter stained with hematoxylin. There was little staining visualized at the one week time point as compared to the two week time point for both the non-pulsed and pulsed constructs. The non-pulsed tissue was slightly greater at both one and two weeks. The PCNA staining was quantitated by counting the total number of positive cells per high powered field and dividing by the total number of cells in the same field to obtain percent of proliferation.
# [7] = altered pulsation (1 hour per 12 hours), 20 μg/ml aprotinin, 2 wks
# [8] = non-pulsed, 10 μg/ml aprotinin, 14 days
# [9] = non-pulsed, 20 μg/ml aprotinin, 1 wk
# [10] = non-pulsed, 20 μg/ml aprotinin, 3 wk
# [11] = non-pulsed, 20 μg/ml aprotinin, 4 wk
# [12] = non-pulsed, 20 μg/ml aprotinin, 8 wk
# [13] = non-pulsed, 20 μg/ml aprotinin, 14 days (2 wk)
# [14] = non-pulsed, 200 μg/ml aprotinin, 14 days
# [15] = pulsed, 10 μg/ml aprotinin, 14 days
# [16] = pulsed, 20 μg/ml aprotinin, 1 wk
# [17] = pulsed, 20 μg/ml aprotinin, 3 wk
# [18] = pulsed, 20 μg/ml aprotinin, 4 wk
# [19] = pulsed, 20 μg/ml aprotinin, 8 wk
# [20] = pulsed, 20 μg/ml aprotinin, 14 days (2 wk)
# [21] = pulsed, 200 μg/ml aprotinin, 14 days
compound,measurement,setting,value
CC(=O)N[C@@H](C(=O)O)C(C)(C)SN=O (racemic) [SNAP],relaxation of norepinephrine constriction,fibrin gel constructs [1]; non-pulsed constructs,42 % of constriction
same,relaxation of norepinephrine constriction,fibrin gel constructs [1]; pulsed constructs,fully
same,"relaxation of norepinephrine constriction compared with 0, 10 and 20 μg/ml aprotinin","fibrin gel constructs [1]; SNAP 10^−7 and 10^−6 M, norepinephrine 10^−6 M, non-pulsed constructs, 200 μg/ml aprotinin",much greater
[Cl-].[K+] [KCl],constriction,"fibrin gel constructs [2]; 118 mM KCl, non-pulsed constructs grown with 10 μg/ml aprotinin",18446±4027 dynes/cm^2
same,constriction,"fibrin gel constructs [2]; 118 mM KCl, non-pulsed constructs grown with 20 μg/ml aprotinin",12244±2083 dynes/cm^2
same,constriction,"fibrin gel constructs [2]; 118 mM KCl, non-pulsed constructs grown with 200 μg/ml aprotinin",6056±2003 dynes/cm^2
same,constriction,"fibrin gel constructs [2]; 118 mM KCl, pulsed constructs grown with 10 μg/ml aprotinin",19274±8302 dynes/cm^2
same,constriction,"fibrin gel constructs [2]; 118 mM KCl, pulsed constructs grown with 20 μg/ml aprotinin",8896±1347 dynes/cm^2
same,constriction,"fibrin gel constructs [2]; 118 mM KCl, pulsed constructs grown with 200 μg/ml aprotinin",2232±475 dynes/cm^2
CCCCC[C@H](O)/C=C/[C@@H]1[C@@H](C/C=C\CCCC(=O)O)[C@H]2CO[C@@H]1C2 [U46619],constriction,"fibrin gel constructs [2]; U46619 3×10^−7, non-pulsed constructs, 0 μg/ml aprotinin",1160±775 dynes/cm^2
same,constriction,"fibrin gel constructs [2]; U46619 3×10^−7, non-pulsed constructs, 200 μg/ml aprotinin",2140±416 dynes/cm^2
same,constriction,"fibrin gel constructs [2]; U46619 3×10^−7, pulsed constructs, 10 μg/ml aprotinin",2670±944 dynes/cm^2
same,constriction,"fibrin gel constructs [2]; U46619 3×10^−7, pulsed constructs, 200 μg/ml aprotinin",973±240 dynes/cm^2
CC(C)NCC(O)c1ccc(O)c(O)c1 (stereo not shown) [isoproterenol],relaxation,fibrin gel constructs [1]; isoproterenol compared with SNAP,much less than that of SNAP
NC[C@H](O)c1ccc(O)c(O)c1 [norepinephrine],constriction,"fibrin gel constructs [2]; norepinephrine 3×10^−6 M, non-pulsed constructs, 0 μg/ml aprotinin",4743±1849 dynes/cm^2
same,constriction,"fibrin gel constructs [2]; norepinephrine 3×10^−6 M, non-pulsed constructs, 200 μg/ml aprotinin",965±16 dynes/cm^2
same,constriction,"fibrin gel constructs [2]; norepinephrine 3×10^−6 M, pulsed constructs, 10 μg/ml aprotinin",4316±1738 dynes/cm^2
same,constriction,"fibrin gel constructs [2]; norepinephrine 3×10^−6 M, pulsed constructs, 200 μg/ml aprotinin",101±102 dynes/cm^2
aprotinin,increase in total tissue weight with later (48 hrs) addition of aprotinin,fibrin gel constructs [3]; non-pulsed,50%
same,increase in total tissue weight with later (48 hrs) addition of aprotinin,fibrin gel constructs [3]; pulsed,130%
same,cell density,fibrin gel constructs [4]; [7],608±123 cells/mm^2
same,cell density,fibrin gel constructs [4]; [8],731±108 cells/mm^2
same,cell density,fibrin gel constructs [4]; [9],613±140 cells/mm^2
same,cell density,fibrin gel constructs [4]; [10],817±43 cells/mm^2
same,cell density,fibrin gel constructs [4]; [11],865±17 cells/mm^2
same,cell density,fibrin gel constructs [4]; [12],751±101 cells/mm^2
same,cell density,fibrin gel constructs [4]; [13],591±52 cells/mm^2
same,cell density,fibrin gel constructs [4]; [14],635±98 cells/mm^2
same,cell density,fibrin gel constructs [4]; [15],611±180 cells/mm^2
same,cell density,fibrin gel constructs [4]; [16],566±33 cells/mm^2
same,cell density,fibrin gel constructs [4]; [17],480±213 cells/mm^2
same,cell density,fibrin gel constructs [4]; [18],175±25 cells/mm^2
same,cell density,fibrin gel constructs [4]; [19],168±54 cells/mm^2
same,cell density,fibrin gel constructs [4]; [20],448±71 cells/mm^2
same,cell density,fibrin gel constructs [4]; [21],390±59 cells/mm^2
same,collagen content,fibrin gel constructs [5]; [7],266.6 ± 20.9 µg/mg
same,collagen content,fibrin gel constructs [5]; [8],175.2 ± 42.3 µg/mg
same,collagen content,fibrin gel constructs [5]; [11],239.9 ± 73.2 µg/mg
same,collagen content,fibrin gel constructs [5]; [12],283.5 ± 80.3 µg/mg
same,collagen content,fibrin gel constructs [5]; [13],225.0 ± 30.2 µg/mg
same,collagen content,fibrin gel constructs [5]; [14],270.1 ± 46.2 µg/mg
same,collagen content,fibrin gel constructs [5]; [15],31.5 ± 22.5 µg/mg
same,collagen content,fibrin gel constructs [5]; [18],124.5 ± 25.1 µg/mg
same,collagen content,fibrin gel constructs [5]; [19],91.8 ± 24.3 µg/mg
same,collagen content,fibrin gel constructs [5]; [20],105.9 ± 16.7 µg/mg
same,collagen content,fibrin gel constructs [5]; [21],217.3 ± 21.0 µg/mg
same,percent of proliferation (PCNA positive cells),fibrin gel constructs [6]; [7],26.3±5.0%
same,percent of proliferation (PCNA positive cells),fibrin gel constructs [6]; [8],73.3±8.8%
same,percent of proliferation (PCNA positive cells),fibrin gel constructs [6]; [9],20.44±44.0%
same,percent of proliferation (PCNA positive cells),fibrin gel constructs [6]; [10],55.5±4.7%
same,percent of proliferation (PCNA positive cells),fibrin gel constructs [6]; [11],20.1±7.6%
same,percent of proliferation (PCNA positive cells),fibrin gel constructs [6]; [12],22.8±3. %
same,percent of proliferation (PCNA positive cells),fibrin gel constructs [6]; [13],73.6±6.3%
same,percent of proliferation (PCNA positive cells),fibrin gel constructs [6]; [14],2.9±0.9%
same,percent of proliferation (PCNA positive cells),fibrin gel constructs [6]; [15],12.3±3.6%
same,percent of proliferation (PCNA positive cells),fibrin gel constructs [6]; [16],41.7±31.1%
same,percent of proliferation (PCNA positive cells),fibrin gel constructs [6]; [17],37.5±3.6%
same,percent of proliferation (PCNA positive cells),fibrin gel constructs [6]; [18],28.0±6.9%
same,percent of proliferation (PCNA positive cells),fibrin gel constructs [6]; [19],14.7±7.5%
same,percent of proliferation (PCNA positive cells),fibrin gel constructs [6]; [20],89.6±2.6%
same,percent of proliferation (PCNA positive cells),fibrin gel constructs [6]; [21],7.7±1.9%
